Values quoted from earlier work, collected in paper PMC9146896, “Uracil as a Zn-Binding Bioisostere of the Allergic Benzenesulfonamide in the Design of Quinoline–Uracil Hybrids as Anticancer Carbonic Anhydrase Inhibitors” (Pharmaceuticals, 2022).
pKi: −log10 of the molar value. “And” between values parts separate entries of the source, which are not always exact repeats. Identical values can stand only once.

Legend:
hCA I = hCA I (Homo sapiens, UniProt P00915); conditions: range, quinoline-based sulfonamides; cited from earlier work
Sequence of hCA I (P00915 whole entry): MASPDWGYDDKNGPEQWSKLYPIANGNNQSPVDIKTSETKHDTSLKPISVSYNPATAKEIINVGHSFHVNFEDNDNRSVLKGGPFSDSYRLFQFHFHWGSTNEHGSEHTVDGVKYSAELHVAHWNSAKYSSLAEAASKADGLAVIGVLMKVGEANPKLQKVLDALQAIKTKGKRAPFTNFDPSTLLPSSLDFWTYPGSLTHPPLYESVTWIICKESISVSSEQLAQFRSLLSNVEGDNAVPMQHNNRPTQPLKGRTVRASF

hCA II = hCA II (Homo sapiens, UniProt P00918); conditions: range, quinoline-based sulfonamides; cited from earlier work
hCA IX = hCA IX (Homo sapiens, UniProt Q16790); parameters: method as in PMID 34681794; conditions: cited from earlier work
hCA XII = hCA XII (Homo sapiens, UniProt O43570); parameters: method as in PMID 34681794; conditions: cited from earlier work
Sequence of hCA XII (O43570 25-354): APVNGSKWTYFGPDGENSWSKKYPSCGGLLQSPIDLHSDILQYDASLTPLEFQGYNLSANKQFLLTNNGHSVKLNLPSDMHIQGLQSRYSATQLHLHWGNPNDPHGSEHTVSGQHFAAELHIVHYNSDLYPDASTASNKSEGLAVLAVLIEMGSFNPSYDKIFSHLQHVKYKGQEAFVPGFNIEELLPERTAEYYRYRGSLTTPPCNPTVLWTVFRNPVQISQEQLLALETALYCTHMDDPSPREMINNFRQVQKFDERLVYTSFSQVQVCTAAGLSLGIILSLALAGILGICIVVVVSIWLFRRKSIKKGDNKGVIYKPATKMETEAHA

CCOC(=O)c1cnc2cc(Cl)c(F)cc2c1Nc1cccc(S(N)(=O)=O)c1 [Compound I]
pKi (hCA I): 5.04 to 6.02 | pKi (hCA II): 5.44 to 7.08

NS(=O)(=O)c1cc(Nc2ccnc3ccc(Cl)cc23)ccc1Cl [Compound II]
pKi (hCA IX): 7.73 and 7.72 | pKi (hCA XII): 8.05
